Results taken from patent US20080249186A1, “Fungicidal Composition” (GIVAUDAN SA, priority 2005, published 2008).

Legend:
Rhizoctonia solani = assay: Checkerboard titration / MIC determination in microtiter plates (turbidity, fungal growth); type: cell-based; details: agent alone; percent by weight
Protocol: (§1) A test system was set up with two of most common soil inhabitating plant pathogenic fungi causing high losses in green houses: Fusarium oxysporum, and Rhizoctonia solani. Garlic oil was used as the source of allyl sulphides.
(§2) The synergistic action between this oil and eugenol or thymol was tested in Checkerboard titration experiments. The ‘checkerboard’ is the inhibitory pattern found for multiple combinations of two antimicrobial agents in concentrations equal to, above, and below their minimal inhibitory concentration for the organism being tested. These multiple combinations of antimicrobial agents are prepared in microtiter plates. The checkerboard consists then of columns which contain the same amount of one antimicrobial which is diluted along the x-axis and rows which each contain the same amount of the other antimicrobial (diluted along the y-axis). Thus, each well of the microtiter plate is a unique combination of the two agents.
(§3) A method of quantitating synergy is the ‘fractional inhibitory concentration’ (FIC) index. For each row, the FIC index is calculated from the lowest concentration of agents necessary to inhibit growth. The FIC of each agent is derived by dividing the concentration of the agent present in that well of the microtiter plate by the minimal inhibitory concentration (MIC) needed of that agent alone to inhibit the organism. The FIC index is then the sum of these values for both antibacterial agents in that well of the microtiter plate. Fractional inhibitory concentration indices are then used as measure of synergy. The FIC index is calculated for each row as follows:
(§4) where MICa, MICb are the minimal inhibitory concentration (MIC) of compound A and B in the mixture, and MICA, MICB are the MIC of A and B when used alone. When the lowest FIC index obtained in a microtiter plate in this way is less than 1, the combination is synergistic. When the FIC index is 1, the combination is additive.
(§5) All examples were made using routine techniques for MIC determination. The dilutions of the active agents were prepared in dimethylsulfoxide, and 2 μl aliquots of the different stock solutions of each of the two agents were then added to individual wells of the microtiter plates to obtain the desired checkerboard as described above. Fungi were swabbed from agar plates and suspended in 10 ml of Sabouraud liquid medium. The fungal suspensions was diluted 20 fold in the same growth medium. To each well of the microtiter plates 100 μl of such a diluted suspension of the test organism was distributed. The plates were covered with plastic films and incubated for 48 h at 30° C. with shaking at 250 rpm. The turbidity was then measured with a microplate reader to determine fungal growth. […]

Fusarium oxysporum = assay: as above; type: cell-based; details: agent alone; percent by weight
Protocol: as §1, §2, §3, §4, §5

SMILES | MIC of pure compounds, R. solani (Rhizoctonia solani) | MIC of pure compounds, F. oxysporum (Fusarium oxysporum)
C=CCc1ccc(O)c(OC)c1 [eugenol, 4-hydroxy-3-methoxy-1-allylbenzene] | 0.025% | 0.05%
Cc1ccc(C(C)C)c(O)c1 [thymol, 1-methyl-3-hydroxy-4-iso-propylbenzene] | 0.0125% | 0.05%
